What all share (type): cell-based
Assay [1] addresses T1, IRE1 (Homo sapiens, UniProt O75460+P40337).
T1 construct: N2731 (HaloTag-VHL); host or cells: HEK293T
Kind of assay: NanoLuc signal IRE1 depletion, WT IRE1-NanoLuc, HEK293T cells. How it is done:
8 × 10^5 293T cells per well were seeded in 6-well plates (Costar, #3516) and incubated at 37 °C, 5% CO2 for 6 h. A mixture of 0.2 µg ERN1 (IRE1)-NanoLuc Fusion Vector (Promega, NV1321), 2 µg HaloTag-VHL Fusion Vector (Promega, N2731), 6 µl FuGENE HD Transfection Reagent (Promega, E2311), and 100 µL Opti-MEM I reduced serum medium (Gibco, #31985062) per well was incubated at room temperature for 20 min before adding to cells. For expression of IRE1 mutants, site-directed mutagenesis was performed using the ERN1-NanoLuc Fusion Vector as the DNA template, and the transfection mixture was prepared in the same way as WT IRE1. After 18 h, cells from 6-well plates were trypsinized, resuspended in Opti-MEM I reduced serum medium, and reseeded into 96-well plates (Costar, #3917), with or without the addition of HaloTag NanoBRET 618 Ligand (Promega, G9801). After 18 h of incubation, a titration of G6374 (dilutions made in Opti-MEM I reduced serum medium) was added to the cells. After 2 h of G6374 treatment, NanoBRET Nano-Glo Substrate (Promega, N1571) was added to cells. The 96-well plates were imaged by GloMax Discover Microplate Reader (Promega, GM3000) with the default “BRET: NanoBRET 618” protocol (Donor: 450 BP; Acceptor: 600 LP; Integration: 0.3 s). Data analysis was performed according to the user manual.

Assay [2] deals with T2, IRE1:VHL (Homo sapiens, UniProt O75460+P40337). The assay is described as follows: co-IP of endogenous VHL with endogenous IRE1 from AMO1 cells. Also on record: co-IP of endogenous VHL with endogenous IRE1 from AMO1 cells; endogenous in cells; host or cells: AMO1. Conditions: titration of G6374. How it is done:
Cells were lysed in buffer containing 20 mM HEPES 7.2, 150 mM NaCl, and 1% Triton X-100, supplemented with fresh protease and phosphatase inhibitors (Invitrogen, #78440), cleared by centrifugation at 12,000 × g for 10 min, and analyzed by BCA protein assay (Thermo Fisher Scientific, #23227). Equal protein amounts were loaded, separated by SDS-PAGE, electrotransferred to nitrocellulose membranes using the iBLOT2 system (Invitrogen), and blocked in 5% nonfat milk solution for 60 min. Membranes were probed with primary antibodies at 1:1000 dilution in 5% milk at 4 °C overnight. Signal was detected using appropriate horseradish peroxidase (HRP)-conjugated secondary antibodies at 1:10,000 in 5% milk at room temperature for 1–2 h. Bands were visualized by the Azure 600 western blot imaging system (Azure Biosystems). For in vitro ubiquitination assays performed with Me-Ub, bands were visualized by the Odyssey CLx Imager (LI‑COR) after incubating the blots with the IRDye 800CW (LI-COR) secondary antibodies at 1:10,000 in Intercept Blocking Buffer (LI-COR) at room temperature for 1–2 h.
IRE1.LD antibodies were conjugated to agarose beads using the AminoLink® Plus Immobilization Kit (Thermo Fisher, #44894). […]

For assay [3], the target named is T2, IRE1:VHL. Kind of assay: NanoBRET IRE1:VHL interaction, WT IRE1, HEK293T cells. Also on record: N2731 (HaloTag-VHL); host or cells: HEK293T. How it is done:
8 × 10^5 293T cells per well were seeded in 6-well plates (Costar, #3516) and incubated at 37 °C, 5% CO2 for 6 h. A mixture of 0.2 µg ERN1 (IRE1)-NanoLuc Fusion Vector (Promega, NV1321), 2 µg HaloTag-VHL Fusion Vector (Promega, N2731), 6 µl FuGENE HD Transfection Reagent (Promega, E2311), and 100 µL Opti-MEM I reduced serum medium (Gibco, #31985062) per well was incubated at room temperature for 20 min before adding to cells. For expression of IRE1 mutants, site-directed mutagenesis was performed using the ERN1-NanoLuc Fusion Vector as the DNA template, and the transfection mixture was prepared in the same way as WT IRE1. After 18 h, cells from 6-well plates were trypsinized, resuspended in Opti-MEM I reduced serum medium, and reseeded into 96-well plates (Costar, #3917), with or without the addition of HaloTag NanoBRET 618 Ligand (Promega, G9801). […] After 2 h of G6374 treatment, NanoBRET Nano-Glo Substrate (Promega, N1571) was added to cells. The 96-well plates were imaged by GloMax Discover Microplate Reader (Promega, GM3000) with the default “BRET: NanoBRET 618” protocol (Donor: 450 BP; Acceptor: 600 LP; Integration: 0.3 s). Data analysis was performed according to the user manual.
For orientation: Bioluminescence resonance energy transfer reports proximity on the nanometre scale.

SMILES strings stand for the structures.

T2 sequence (O75460 19-977): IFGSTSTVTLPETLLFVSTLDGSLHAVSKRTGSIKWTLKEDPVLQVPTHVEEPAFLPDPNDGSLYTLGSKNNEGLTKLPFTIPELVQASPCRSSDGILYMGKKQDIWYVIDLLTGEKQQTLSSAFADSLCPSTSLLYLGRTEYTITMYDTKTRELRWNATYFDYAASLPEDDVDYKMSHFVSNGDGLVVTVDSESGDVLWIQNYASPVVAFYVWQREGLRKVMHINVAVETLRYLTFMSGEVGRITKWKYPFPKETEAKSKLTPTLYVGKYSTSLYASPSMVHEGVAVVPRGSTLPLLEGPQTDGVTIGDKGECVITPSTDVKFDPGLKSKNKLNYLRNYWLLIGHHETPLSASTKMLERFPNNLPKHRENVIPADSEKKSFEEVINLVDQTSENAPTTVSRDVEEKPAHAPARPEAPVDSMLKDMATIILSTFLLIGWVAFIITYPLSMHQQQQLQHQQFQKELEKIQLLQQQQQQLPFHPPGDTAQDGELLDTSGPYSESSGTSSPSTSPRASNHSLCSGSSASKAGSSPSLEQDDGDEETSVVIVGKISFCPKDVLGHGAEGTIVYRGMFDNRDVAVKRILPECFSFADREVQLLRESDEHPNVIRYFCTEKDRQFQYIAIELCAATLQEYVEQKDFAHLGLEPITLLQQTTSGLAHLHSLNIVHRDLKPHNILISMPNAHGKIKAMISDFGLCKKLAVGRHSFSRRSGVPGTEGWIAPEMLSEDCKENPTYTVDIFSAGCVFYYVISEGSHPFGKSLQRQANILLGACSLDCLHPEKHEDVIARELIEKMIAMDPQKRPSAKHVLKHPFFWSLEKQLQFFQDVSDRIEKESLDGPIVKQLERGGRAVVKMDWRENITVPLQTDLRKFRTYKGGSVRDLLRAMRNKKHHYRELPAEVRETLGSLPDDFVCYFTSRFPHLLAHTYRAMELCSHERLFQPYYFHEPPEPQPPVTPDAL
T2 sequence (P40337 whole entry): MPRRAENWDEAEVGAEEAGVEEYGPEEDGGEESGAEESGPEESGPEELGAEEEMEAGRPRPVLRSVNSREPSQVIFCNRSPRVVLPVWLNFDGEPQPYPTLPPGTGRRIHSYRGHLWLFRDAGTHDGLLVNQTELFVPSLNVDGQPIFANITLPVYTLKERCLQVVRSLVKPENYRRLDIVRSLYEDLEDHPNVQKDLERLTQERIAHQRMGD
T2 sequence (Q15369 whole entry partner): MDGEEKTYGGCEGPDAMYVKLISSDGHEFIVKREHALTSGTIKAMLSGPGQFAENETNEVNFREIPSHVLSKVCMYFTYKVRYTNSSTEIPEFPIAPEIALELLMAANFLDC
T2 sequence (Q15370 whole entry partner): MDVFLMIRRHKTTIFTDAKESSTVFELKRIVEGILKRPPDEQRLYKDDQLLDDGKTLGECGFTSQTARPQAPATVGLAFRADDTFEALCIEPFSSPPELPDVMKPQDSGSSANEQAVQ
T2 sequence (Q13617 whole entry partner): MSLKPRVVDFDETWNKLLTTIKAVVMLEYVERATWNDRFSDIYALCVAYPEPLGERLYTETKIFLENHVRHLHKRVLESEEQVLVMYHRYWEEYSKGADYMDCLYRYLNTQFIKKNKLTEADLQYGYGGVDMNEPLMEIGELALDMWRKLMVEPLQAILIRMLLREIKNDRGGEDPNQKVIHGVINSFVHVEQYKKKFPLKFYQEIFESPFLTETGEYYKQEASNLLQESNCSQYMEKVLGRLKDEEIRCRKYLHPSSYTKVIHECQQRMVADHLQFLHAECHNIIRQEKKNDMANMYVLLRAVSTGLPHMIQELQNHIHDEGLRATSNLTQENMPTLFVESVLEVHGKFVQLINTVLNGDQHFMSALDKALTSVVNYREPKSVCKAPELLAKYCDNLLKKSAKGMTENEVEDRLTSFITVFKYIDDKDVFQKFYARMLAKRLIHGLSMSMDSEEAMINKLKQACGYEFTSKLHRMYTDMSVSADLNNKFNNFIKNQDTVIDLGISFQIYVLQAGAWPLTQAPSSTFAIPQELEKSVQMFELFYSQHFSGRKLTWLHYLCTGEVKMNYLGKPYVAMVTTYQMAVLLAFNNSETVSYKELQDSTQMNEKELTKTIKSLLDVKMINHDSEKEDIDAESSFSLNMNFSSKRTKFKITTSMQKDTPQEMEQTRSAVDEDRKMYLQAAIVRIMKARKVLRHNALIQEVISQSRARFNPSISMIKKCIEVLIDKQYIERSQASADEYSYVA
T2 sequence (P62877 whole entry partner): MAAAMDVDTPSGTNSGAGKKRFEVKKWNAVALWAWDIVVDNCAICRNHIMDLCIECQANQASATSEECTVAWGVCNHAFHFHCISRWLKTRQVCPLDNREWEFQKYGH
T1 sequence (O75460 19-977): as the sequence (O75460 19-977) above
T1 sequence (P40337 whole entry): as the sequence (P40337 whole entry) above
T1 sequence (Q15369 whole entry partner): as the sequence (Q15369 whole entry partner) above
T1 sequence (Q15370 whole entry partner): as the sequence (Q15370 whole entry partner) above
T1 sequence (Q13617 whole entry partner): as the sequence (Q13617 whole entry partner) above
T1 sequence (P62877 whole entry partner): as the sequence (P62877 whole entry partner) above

In the case of `Cc1ncsc1-c1ccc(CNC(=O)[C@@H]2C[C@@H](O)CN2C(=O)[C@@H](NC(=O)CCCCN2CCN([C@H]3CC[C@H](Nc4ncc5ccc(=O)n(C(C)C)c5n4)CC3)CC2)C(C)(C)C)cc1` [G6374], the Dmax in assay [1] (HEK-293T, 2 h, n = 3, mean ± SEM) came out at 78%. Further, in assay [1] (estimated), the DC50 is 130 nM. Further, the “induced IRE1:VHL interaction (co-IP)” value in assay [2] is listed as “induced a much stronger interaction between the two proteins”. The EC50 (commonly the concentration at which the effect is half-maximal) in assay [3] was 110 ± 30 nM. Moreover, in assay [3] (WT IRE1, HEK293T, estimated), the “EC50 of IRE1:VHL interaction (NanoBRET ratio)” value is recorded as 110 nM.

Values taken from paper PMC12749748, “Chemically-induced degradation of the endoplasmic-reticulum stress sensor IRE1 by a VHL-recruiting chimera” (Nature Communications, 2025).
